Reference: PMC7810697, “Sarcolipin alters SERCA1a interdomain communication by impairing binding of both calcium and ATP” (Scientific Reports, 2021)
Where “and” joins values, the source holds several entries; their conditions need not be identical. Equal entries are not always repeated. Ends that are not written are not given here.

Key:
[1] = tested on: recombinant purified SERCA1a (recS1a); test: Limited proteolysis with proteinase K (SDS-PAGE); type: biochemical, rabbit (expressed in S. cerevisiae); conditions: DDM-solubilized SR; 5 min profile similar to 60 min in native lipids
Method: Yeast-expressed and purified SERCA1a (recS1a) was supplemented with SLN at a mole:mole ratio of 1:10 recS1a:SLN. In absence of SLN, recS1a was supplemented with 0.07 mg/mL C12E8, an amount that corresponds to the detergent brought with chemically synthesized SLN. After 30 min at 20 °C, samples were supplemented with either 1.1 mM EGTA (Ca^2+free ~ 1 mM), or 50 mM EGTA (Ca^2+free ~ 150 nM) and 0.01 mg/mL Tg. After an additional incubation for 10 min at 20 °C, proteolysis was achieved by addition of 0.3 mg/mL proteinase K. Proteolysis was stopped by addition of 1 mM PMSF and incubation on ice for 10 min. After proteolysis arrest, samples were diluted twice in a 4 M-urea containing denaturation buffer, boiled for 60 s, and about 0.75 µg protein were loaded on a 9% SDS-PAGE prepared in the presence of 1 mM Ca^2+[32]. After electrophoresis, gels were stained with Coomassie blue.

[2] = target: T1, recombinant SERCA1a (recS1a) (Oryctolagus cuniculus, UniProt P04191); test: Mg.ATP binding by tryptophan fluorescence; set-up: species or system rabbit (expressed in S. cerevisiae)
T1 construct: BAD (biotin acceptor domain) (C, cleaved yes); made in house; host or cells: Saccharomyces cerevisiae
Method: (§1) Intrinsic fluorescence of SERCA1a was measured with a SPEX Fluorolog spectrofluorometer (Horiba/Jobin–Yvon, Longjumeau, France) as described before. Briefly, signals were monitored with excitation and emission wavelength set at 295 and 320 nm, with bandwidths of 2 and 10 nm, respectively. Changes in tryptophan fluorescence were recorded at 20 °C after dilution of protein samples to a final concentration of about 6–7.5 µg/mL into a medium containing 50 mM MOPS-Tris pH 7, 100 mM KCl, 5 mM MgCl2, 20% glycerol (v/v) and 10 mg/mL DDM. In presence of SLN, recS1a and SLN were first mixed together and incubate for 1 h on ice before measurement. In absence of SLN, recS1a is supplemented with 0.07 mg/mL C12E8 to compensate the detergent present with SLN. The Maxchelator program was used for estimating [Ca^2+]free[59] (program available at https://somapp.ucdmc.ucdavis.edu/pharmacology/bers/maxchelator/downloads.htm). The dissociation constant of the Ca.EGTA complex was taken to be 0.4 µM at pH7 and was assumed to be the same in the presence of glycerol.

[3] = target: T1, recombinant SERCA1a (recS1a); test: Calcium binding at equilibrium by tryptophan fluorescence; set-up: species or system rabbit (expressed in S. cerevisiae); conditions: absence of pSLN, average of three independent experiments
Method: as §1

[4] = target: T1, recombinant SERCA1a (recS1a); test: Steady-state ATPase activity, enzyme-coupled assay; type: biochemical, rabbit (expressed in S. cerevisiae); conditions: absence of pSLN; steady state, NADH-coupled assay; three independent experiments
Method: resuspended in a large volume of pure water and lyophilized to evaporate most of the TFA. The rinsed powder was then suspended in presence of 10 mM HCl to exchange the anionic residual TFA that may interact with the positive charges of the peptide for chloride. This suspension was lyophilized again.
Three additional cycles of – dissolving in pure water / lyophilisation – will allow to eliminate traces of TFA and to get back to a pH compatible with functional tests. For final solubilisation of SLN in detergent, powder was then dissolved in 50% TFE and an amount of detergent to reach a 100:1 mole:mole detergent:SLN ratio. Here, we used C12E8 as it is fully compatible with functional characterization of SERCA1a 23. This suspension was then lyophilized again to evaporate TFE.
Sarcolipins (Palm-SLN or SLN) were finally resuspended at 0.8 mg/mL (about 200 µM) in a 10 mM potassium phosphate buffer pH 7.4, in the presence of 2.5 mg/mL C12E8.
Expression and Purification of recombinant SERCA1a (recS1a)
The yeast expression plasmid pYeDP60-SERCA1a-BAD (WT) and expression in Saccharomyces cerevisiae was described previously 30. Yeast membranes were solubilized by DDM for subsequent purification of recombinant Ca2+-ATPase by Streptavidin affinity chromatography 31. Purified recombinant SERCA1a was recovered in a buffer containing 50 mM MOPS-Tris pH7, 100 mM KCl, 5 mM MgCl2, 2.1 mM CaCl2, 40 % glycerol (v/v) and 0.5 mg/mL DDM, together with some thrombin remaining from the elution procedure. The protein concentration in the purified fraction was in the 0.05 to 0.15 mg/mL range depending on the batch. […]
Steady-state ATPase activity measurements
Measurements were performed using classical enzyme coupled assay. We measured the rate of NADH oxidation in the presence of 0.1 mg/mL lactate deshydrogenase, 0.05 mg/mL pyruvate kinase, 1 mM phosphoenolpyruvate, 0.25 mM NADH (protocol was adapted from 22) and in the additional presence of 2 mg/mL C12E8 to limit time-dependent inactivation of the purified SERCA1a 20,23.

[5] = target: T1, recombinant SERCA1a (recS1a); test: Calcium dependence of phosphoenzyme level; type: biochemical, rabbit (expressed in S. cerevisiae); conditions: absence of pSLN, five independent experiments
Method: (§2) Transient formation of the phosphoenzyme intermediate was measured after incubation with [γ^32P]ATP followed by acid quenching, and filtration. For most experiments, 50 µL of enzyme at 10 µg/mL in a buffer containing 50 mM Tes-Tris pH7.5, 1 mM KCl, 5 mM MgCl2, 20% glycerol (w/w) and 0.5 mg/mL DDM, supplemented or not with SLN, was stored on ice. Concentrations of EGTA and calcium are specified in figure legends in order to reach the appropriate [Ca^2+]free and therefore the desired starting state for the ATPase. For kinetics of phosphorylation, we initiate reaction by addition of 2 µM [γ^32P]ATP (5 mCi/µmole), and calcium at 100 µM when specified. Reaction was quenched by addition of 2 mL of cold quenching medium (500 mM TCA + 30 mM H3P0_4) under vigorous mixing, and immediately stored on ice for 20–30 min to improve precipitation, a period of time critical for retention of the precipitate on the filter in presence of detergent. This was followed by filtration on GS filters (Millipore, Saint Quentin-Fallavier, France) and careful rinsing of the filters with diluted quenching medium (50 mM TCA + 3 mM H3P0_4). The amount of radioactivity bound to the filter was estimated by liquid scintillation counting (Perkin Elmer TriCarb Counter). When starting from a calcium-deprived state (Fig. 4C,D), EGTA was added only one minute before starting phosphorylation to limit irreversible inactivation of the solubilized ATPase, although the presence of glycerol helps in protecting the enzyme from irreversible inactivation. For dephosphorylation kinetics, 1 mM “cold” Mg.ATP was added after a 30 s period of phosphorylation. For Ca^2+-dependency, we adjust the concentration of free calcium according to the Ca.EGTA constant as mentioned above, before triggering phosphorylation. […] Phosphorylations were done at 0 °C especially for inhibition by vanadate to prevent dissociation of vanadate and limit irreversible inactivation in absence of calcium.

[6] = target: T1, recombinant SERCA1a (recS1a); test: Vanadate inhibition of phosphoenzyme formation, recS1a; type: biochemical, rabbit (expressed in S. cerevisiae); conditions: absence of pSLN, phosphorylation 30 s at 0 °C, three independent experiments
Method: as §2

[7] = tested on: protein phosphatase 1a (PP1a); conditions: cited from earlier work
Source text: (§3) Besides its various roles in protein signalling and addressing, palmitoylation can also regulate oligomerisation processes of membrane proteins. Recent work has shown that other P-type ATPases regulatory subunits like phospholamban (PLB) and phospholemman (PLM) are palmitoylated[16],[17]. Acylation of PLB and PLM is functionally relevant by having an impact on the oligomerisation of the peptides, their association with their dedicated pumps (Ca^2+-ATPase or Na+, K+-ATPase, respectively) and on their lifetime.

[8] = tested on: protein kinase A (PKA); conditions: cited from earlier work
Source text: as §3

[9] = tested on: SERCA1a; conditions: cited from earlier work
Source text: as §3

[10] = tested on: SERCA1a; conditions: deacylation with hydroxylamine; steady state; in membrane or after solubilization by C12E8; cited from earlier work
Source text: Effect on the turnover is less clear as it seems to highly depend on the system used for functional characterization. […] This post-translational modification is also present in pig SLN and presumably in a few other mammals and birds, as judged from the amino-acid sequences. Among the other hundred seq ...

T1 sequence (P04191 1-994 isoform P04191-2): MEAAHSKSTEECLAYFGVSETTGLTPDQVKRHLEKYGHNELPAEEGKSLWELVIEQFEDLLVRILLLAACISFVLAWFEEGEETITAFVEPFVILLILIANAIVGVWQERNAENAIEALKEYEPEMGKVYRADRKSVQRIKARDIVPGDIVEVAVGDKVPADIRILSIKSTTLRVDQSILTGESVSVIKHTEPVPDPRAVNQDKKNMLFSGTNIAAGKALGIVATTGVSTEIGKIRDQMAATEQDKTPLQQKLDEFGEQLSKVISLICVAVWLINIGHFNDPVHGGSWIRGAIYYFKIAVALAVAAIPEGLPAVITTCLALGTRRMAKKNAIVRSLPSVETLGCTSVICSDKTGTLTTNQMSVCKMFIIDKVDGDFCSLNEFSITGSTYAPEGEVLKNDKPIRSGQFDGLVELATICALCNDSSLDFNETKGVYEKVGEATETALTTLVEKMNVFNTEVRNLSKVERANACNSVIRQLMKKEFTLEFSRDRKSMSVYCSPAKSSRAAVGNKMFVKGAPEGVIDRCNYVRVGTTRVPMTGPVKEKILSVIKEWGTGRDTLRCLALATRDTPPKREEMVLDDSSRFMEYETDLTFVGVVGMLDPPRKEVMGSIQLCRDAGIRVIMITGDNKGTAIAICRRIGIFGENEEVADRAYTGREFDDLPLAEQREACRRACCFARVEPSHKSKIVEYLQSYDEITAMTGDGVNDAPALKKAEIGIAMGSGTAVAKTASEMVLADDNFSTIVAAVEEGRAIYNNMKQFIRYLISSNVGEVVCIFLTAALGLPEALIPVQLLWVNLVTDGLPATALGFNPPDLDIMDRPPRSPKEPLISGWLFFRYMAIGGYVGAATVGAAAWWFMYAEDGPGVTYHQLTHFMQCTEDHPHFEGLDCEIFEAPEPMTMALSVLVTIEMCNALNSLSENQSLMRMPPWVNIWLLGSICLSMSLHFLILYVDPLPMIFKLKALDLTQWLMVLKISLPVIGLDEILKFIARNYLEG

## CCCCCCCCCCCCO[C@@H]1O[C@H](CO)[C@@H](O[C@H]2O[C@H](CO)[C@@H](O)[C@H](O)[C@H]2O)[C@H](O)[C@H]1O [DDM, n-dodecyl β-D-maltopyranoside, reference compound]
[1]
  effect of detergent on proteinase K proteolysis: significantly accelerates proteolysis

## Nc1ncnc2c1ncn2[C@@H]1O[C@H](COP(=O)(O)OP(=O)([O-])OP(=O)([O-])O)[C@@H](O)[C@H]1O.[Mg+2] [Mg.ATP, reference compound]
[2]; absence of pSLN, calcium-deprived (2 mM EGTA), pH 7, 20 °C, DDM, 20% glycerol, three independent experiments
  Mg-ATP1/2 (affinity for Mg.ATP), recS1a alone: 3 µM and 3.00 ± 0.12 µM
[2]; absence of pSLN, three independent experiments
  nH for Mg.ATP, recS1a alone: 0.99 ± 0.04
[2]; in absence of SLN, not in its presence
  Mg.ATP concentration sufficient to saturate the SERCA1a site: about 30 µM

## [Ca+2] [calcium]
[3]; at equilibrium, pH 7, 20 °C, DDM, 20% glycerol
  Ca1/2 (tryptophan fluorescence), recS1a alone: 2.94 ± 0.30 µM and 2.9 µM
[3]
  nH for calcium (tryptophan fluorescence), recS1a alone: 1.67+/-0.25
[4]
  Ca1/2 (ATPase activity), recS1a alone: 0.15 ± 0.08 µM
[5]
  nH for calcium (phosphoenzyme level), recS1a alone: 0.54 ± 0.02
[5]; phosphorylation 15 s
  Ca1/2 (phosphoenzyme level), recS1a alone: 0.33 ± 0.03 µM and 0.33 µM

## [O]=[V]([O-])([O-])[O-] [orthovanadate, reference compound]
[6]
  K1/2 (K0.5) for vanadate inhibition, recS1a alone: 1.43 ± 0.08 µM
[6]; listed as vanadate
  K1/2 (K0.5) for vanadate inhibition, recS1a alone: 1.43 ± 0.08 µM

## PLB: phospholamban, 52 amino-acid long, with a transmembrane helix and a long cytosolic extension
[7]
  effect of PLB palmitoylation (Cys 36) on PP1a affinity: reduces affinity for protein phosphatase 1a (PP1a)
[8]
  effect of PLB palmitoylation (Cys 36) on PKA affinity: increases affinity for protein kinase A (PKA)
[9]
  effect of PLB phosphorylation on SERCA1a inhibition: release of SERCA1a inhibition without its full dissociation from the pump

## native SLN: native rabbit sarcolipin, S-palmitoylated or S-oleoylated on Cys9, co-purified with SERCA1a from SR (MERSTRELCLNFTVVLITVILIWLLVRSYQY; also: Cys9 S-palmitoylated or S-oleoylated; UniProt P42532 1-31, looked up)
[10]
  effect of deacylation of native SLN on affinity for calcium and Vmax: no effect
